Where no end group is shown, it is not given here.
How the values were obtained:
induced colitis = details: Rabbi et al. 2014; cited from earlier work
fecal microbiota = experiment: Fecal microbiota composition by Illumina 16S rRNA sequencing after intrarectal CTS; type: in vivo, C57BL/6 mice; details: for Mean percentage of sequence in total bacterial population: CTS 1.5 mg/kg/day i.r. 6 days
Method: (§1) Male C57BL/6 mice (7-9 weeks old) were purchased from Charles River (Canada) and maintained in the animal care facility at the University of Manitoba. The experimental protocol was approved by the University of Manitoba Animal Ethics Committee (10-073) and the research was conducted according to the Canadian Guidelines for Animal Research. Two groups of 4 and 6 mice were studied, one receiving the vehicle solution and one receiving intra-rectal Infusion of CTS for 6 days.
(§2) Saline (0.9%) was injected in the control group. Mice were anaesthetized using Isoflurane (Abbott, Toronto, Canada).
(§3) Samples were collected 6 days post-treatment induction, after euthanasia under isoflurane (Abbot) anaesthesia. The macroscopic score was determined on the sacrifice day based on stool consistency, rectal prolapse and rectal and colonic bleeding. On the day of sacrifice, a 250 mg fecal sample and a portion of the colon were collected in individual collector tubes from each animal. All samples were preserved at −80° C. before use.
(§4) Colons were opened and 50 mg of scrapings were taken from the inside. Samples were homogenized at room temperature, and genomic DNA was extracted from 250 mg fecal mass using a ZR fecal DNA Kit (Zymo Research Corp., Orange, Calif.). DNA extraction was performed using a Qiagen DNeasy blood & tissue kit (Qiagen corp, Valencia, USA). Both DNA extraction kits have a bead-beating step to lyse microbial cells. To match the concentration requirement for pyrosequencing, DNA quantity was determined using a Beckman DU/800 spectrophotometer (Beckman Coulter, Inc., Fullerton, Calif.). Genomic DNA was normalized to achieve a concentration of 20 ng/μL, and quality-checked by 16S rRNA gene using PCR amplification of 27F (5′-[…]-3′, SEQ ID NO:2) and 342R (5′-[…]-3′, SEQ ID NO:3)^58, 59. Amplicons were verified by agarose gel electrophoresis.
(§5) Library construction and Illumina sequencing were performed as described by Derakhshani et al.^60. Briefly, the […] region of the 16S rRNA gene was targeted for PCR amplification using modified F515/R806 primers^61. A reverse PCR primer was Indexed with 12-base Golay barcodes to allow for sample multiplexing. The PCR reaction for each sample was performed in duplicate and contained 1.0 μl of pre-normalized DNA, 1.0 μl each of forward and reverse primers (10 μM), 12 μl HPLC grade water (Fisher Scientific, ON, Canada) and 10 μl 5 Prime Hot MasterMix® (5 Prime, Inc., Gaithersburg, USA). Reactions consisted of an initial denaturing step at 94° C. for 3 min followed by 35 amplification cycles at 94° C. for 45 sec, 50° C. for 60 sec and 72° C. for 90 sec; this was followed by an extension step at 72° C. for 10 min in an Eppendorf Mastercycler® (Eppendorf, Hamburg, Germany). PCR products were then purified using a ZR-96 DNA Clean-up Kit™ (ZYMO Research, CA, USA) to remove primers, dNTPs and reaction components. The V4 library was then generated by pooling 200 ng of each sample, and quantified using Picogreen dsDNA (Invitrogen, NY, USA). This was followed by multiple dilution steps using pre-chilled hybridization buffer (HT1) (Illumina, CA, USA) to bring the pooled ampilcons to a final concentration of […], and the concentration was measured through optical density using a Qubit® 2.0 Fluorometer (Life technologies, ON, Canada). […] The 150 paired-end sequencing reaction was performed on a MISeq platform (Illumina, CA, USA) at the Gut Microbiome and Large Animal Biosecurity Laboratories, Department of Animal Science, University of Manitoba, Canada.
(§6) Bioinformatics analyses were performed as described by Derakhshani et al.^60. Briefly, the PANDAseq assembler^62 was used to merge overlapping paired-end Illumina fastq files. All the sequences with mismatches or ambiguous calls in the overlapping region were discarded. The output fastq file was then analyzed using downstream computational pipelines in the open source software package QIIME^63.

[1] = tested on: Staphylococcus aureus, group A Streptococcus, Escherichia coli, Pseudomonas aeruginosa, Candida albicans, Aspergillus niger, A. fumigates, Trichophyton rubrum; details: gram-positive and gram-negative bacteria, yeasts, filamentous fungi; cited from earlier work
[2] = tested on: colonic mucosa associated microbiota; experiment: Colonic mucosa associated microbiota composition by Illumina 16S rRNA sequencing after intrarectal CTS; type: in vivo, C57BL/6 mice; details: for Mean percentage of sequence in total bacterial population: CTS 1.5 mg/kg/day i.r. 6 days
Method: as §1, §2, §3, §4, §5, §6

[3] = fecal samples, R^2=0.94, Q^2=0.57
[4] = colonic mucosa associated samples
[5] = colonic mucosa associated samples, R^2=0.32, Q^2=0.242

SSMKLSFRARAYGFRGPGPQL [CTS]
Severity of induced colitis (induced colitis): less severe induced colitis
E. coli levels in the gut (fecal microbiota; CTS administration in vivo): not affected
S. aureus levels in the gut (fecal microbiota; CTS administration in vivo): not affected
Impact on Chao1, ACE, Shanon and Simpson indices of α-diversity (fecal microbiota; fecal bacterial community, vs control): no significant impact
Effect on Verrucomicrobia (fecal microbiota; fecal samples): lowered
β-diversity (unweighted UniFrac, PERMANOVA): bacterial community vs controls (fecal microbiota; fecal samples, P<0.05): clustered separately
PLS-DA association with CTS treatment: Adlercreutzia, Allobaculum, Bacteroidaceae (Family), Clostridia (Class), Ruminococcaceae (Family) (fecal microbiota; [3]): negative association
PLS-DA association with CTS treatment: Alpharoteobacteria (Class), Bacteroidales (Order), RF32 (Order), mitochondria (Family), YS2 (Order) (fecal microbiota; [3]): positive association
PLS-DA association with CTS treatment: genera Prevotella, Bacteroides Ovatus, Bacteroides, Parabacteroides distarosis, Parabacteroides and Dorea (fecal microbiota; [3]): positively associated
Change of Firmicutes population vs control (fecal microbiota; feces, P<0.001): significantly decreased
Change of relative abundance of Bacteroidetes vs control (fecal microbiota; feces, P<0.05): significantly increased
Prevotella, Bacteroides, and Parabacteroides populations (fecal microbiota; feces, lower taxonomical level): significant increase
Mean percentage of sequence in total bacterial population (fecal microbiota; phylum Actinobacteria, fecal samples): 0.1877%
Mean percentage of sequence in total bacterial population (fecal microbiota; phylum Bacteroidetes, fecal samples): 74%
Mean percentage of sequence in total bacterial population (fecal microbiota; phylum Cyanobacteria, fecal samples): 0.152%
Mean percentage of sequence in total bacterial population (fecal microbiota; phylum Deferribacteres, fecal samples): 1.144%
Mean percentage of sequence in total bacterial population (fecal microbiota; phylum Fibrobacteres, fecal samples): 0.000541%
Mean percentage of sequence in total bacterial population (fecal microbiota; phylum Firmicutes, fecal samples): 20.56%
Mean percentage of sequence in total bacterial population (fecal microbiota; phylum Proteobacteria, fecal samples): 2.873%
Mean percentage of sequence in total bacterial population (fecal microbiota; phylum TM7, fecal samples): 0.003098%
Mean percentage of sequence in total bacterial population (fecal microbiota; phylum Tenericutes, fecal samples): 0.4046%
Mean percentage of sequence in total bacterial population (fecal microbiota; phylum Unclassified, fecal samples): 0.4142%
Mean percentage of sequence in total bacterial population (fecal microbiota; phylum Verrucomicrobia, fecal samples): 0.266%
Antimicrobial activity in vitro [1]: effective
Impact on Chao1, ACE, Shanon and Simpson indices of α-diversity ([2]; colonic mucosa associated bacterial community, vs control): no significant impact
Effect on Verrucomicrobia [2, 4]: lowered
Impact on relative abundance of bacterial phyla [2, 4]: no significant impact
β-diversity (PERMANOVA): bacterial community vs controls [2, 4]: no significant change
PLS-DA association with CTS treatment: Bacteroidales, Chitinophagaceae, Clostridlaceae, Clostridiales, Coriobacteriaceae, Pseudomonadaceae, Rikenellaceae, Ruminococcaceae, YS2 [2, 5]: positive association
PLS-DA association with CTS treatment: genera Bifidobacterium and Stenotrophomonas [2, 5]: positive association
Mean percentage of sequence in total bacterial population ([2]; phylum Acidobacteria, colonic mucosa associated samples): 0.03339%
Mean percentage of sequence in total bacterial population ([2]; phylum Actinobacteria, colonic mucosa associated samples): 0.0724%
Mean percentage of sequence in total bacterial population ([2]; phylum Armatimonadetes, colonic mucosa associated samples): 0.000879%
Mean percentage of sequence in total bacterial population ([2]; phylum Bacteroidetes, colonic mucosa associated samples): 21.0435%
Mean percentage of sequence in total bacterial population ([2]; phylum Chlamydiae, colonic mucosa associated samples): 0.00306%
Mean percentage of sequence in total bacterial population ([2]; phylum Chlorobi, colonic mucosa associated samples): 0.002098%
Mean percentage of sequence in total bacterial population ([2]; phylum Cyanobacteria, colonic mucosa associated samples): 0.1752%
Mean percentage of sequence in total bacterial population ([2]; phylum Deferribacteres, colonic mucosa associated samples): 5.95%
Mean percentage of sequence in total bacterial population ([2]; phylum Fibrobacteres, colonic mucosa associated samples): 0.01378%
Mean percentage of sequence in total bacterial population ([2]; phylum Firmicutes, colonic mucosa associated samples): 12.52%
Mean percentage of sequence in total bacterial population ([2]; phylum Lentisphaerae, colonic mucosa associated samples): 0.00457%
Mean percentage of sequence in total bacterial population ([2]; phylum OD1, colonic mucosa associated samples): 0.004988%
Mean percentage of sequence in total bacterial population ([2]; phylum OP3, colonic mucosa associated samples): 0.001604%
Mean percentage of sequence in total bacterial population ([2]; phylum Planctomycetes, colonic mucosa associated samples): 0.004664%
Mean percentage of sequence in total bacterial population ([2]; phylum Proteobacteria, colonic mucosa associated samples): 59.17%
Mean percentage of sequence in total bacterial population ([2]; phylum Spirochaetes, colonic mucosa associated samples): 0.08226%
Mean percentage of sequence in total bacterial population ([2]; phylum TM7, colonic mucosa associated samples): 0.007409%
Mean percentage of sequence in total bacterial population ([2]; phylum Tenericutes, colonic mucosa associated samples): 0.3714%
Mean percentage of sequence in total bacterial population ([2]; phylum Unclassified, colonic mucosa associated samples): 0.2915%
Mean percentage of sequence in total bacterial population ([2]; phylum Verrucomicrobia, colonic mucosa associated samples): 0.1428%
